What was measured:
[1] = tested on: Mast/stem cell growth factor receptor Kit (Homo sapiens), P10721 [V559D,V654A]; assay: (§1) Selectivity interaction (KinomeScan (DiscoverX)) EUB0000666a KIT; details: at 10 µM
[2] = tested on: Mast/stem cell growth factor receptor Kit (Homo sapiens), P10721 [D816V]; assay: as §1; details: at 10 µM
[3] = target: Mast/stem cell growth factor receptor Kit (Homo sapiens, UniProt P10721); assay: as §1; details: at 10 µM
[4] = tested on: Mast/stem cell growth factor receptor Kit (Homo sapiens), P10721 [D816H]; assay: as §1; details: at 10 µM
[5] = tested on: Mast/stem cell growth factor receptor Kit (Homo sapiens), P10721 [V559D,T670I]; assay: as §1; details: at 10 µM
[6] = tested on: Mast/stem cell growth factor receptor Kit (Homo sapiens), P10721 [V559D]; assay: as §1; details: at 10 µM
[7] = tested on: Mast/stem cell growth factor receptor Kit (Homo sapiens), P10721 [L576P]; assay: as §1; details: at 10 µM
[8] = target: T1, Non-receptor tyrosine-protein kinase TNK1 (Homo sapiens) (UniProt Q13470); assay: Selectivity interaction (KinomeScan (DiscoverX)) EUB0000666a TNK1; details: at 10 µM
T1 sequence (whole entry): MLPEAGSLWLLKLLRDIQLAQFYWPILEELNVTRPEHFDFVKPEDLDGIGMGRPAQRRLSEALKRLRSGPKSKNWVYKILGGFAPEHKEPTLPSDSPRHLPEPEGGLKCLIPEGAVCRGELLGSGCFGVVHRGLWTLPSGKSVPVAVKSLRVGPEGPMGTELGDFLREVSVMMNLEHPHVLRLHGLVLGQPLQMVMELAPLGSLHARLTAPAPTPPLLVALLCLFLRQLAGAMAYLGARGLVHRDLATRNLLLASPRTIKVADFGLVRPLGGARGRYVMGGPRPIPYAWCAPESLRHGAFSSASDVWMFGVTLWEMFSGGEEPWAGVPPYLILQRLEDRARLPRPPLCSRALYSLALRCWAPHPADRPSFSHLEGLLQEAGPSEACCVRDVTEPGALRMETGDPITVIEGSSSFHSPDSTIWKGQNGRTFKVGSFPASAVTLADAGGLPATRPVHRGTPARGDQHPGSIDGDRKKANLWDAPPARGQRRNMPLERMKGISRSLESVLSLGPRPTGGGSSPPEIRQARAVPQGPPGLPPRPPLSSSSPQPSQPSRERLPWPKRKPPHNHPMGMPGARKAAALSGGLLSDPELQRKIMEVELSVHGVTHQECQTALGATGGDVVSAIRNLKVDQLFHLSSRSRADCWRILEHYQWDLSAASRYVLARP

[9] = target: Serine/threonine-protein kinase pim-2 (Homo sapiens, UniProt Q9P1W9); assay: Selectivity interaction (KinomeScan (DiscoverX)) EUB0000229b PIM2; details: at 10 µM
[10] = target: T2, Dual specificity mitogen-activated protein kinase kinase 3 (Homo sapiens) (UniProt P46734); details: at 10 µM
T2 sequence (whole entry): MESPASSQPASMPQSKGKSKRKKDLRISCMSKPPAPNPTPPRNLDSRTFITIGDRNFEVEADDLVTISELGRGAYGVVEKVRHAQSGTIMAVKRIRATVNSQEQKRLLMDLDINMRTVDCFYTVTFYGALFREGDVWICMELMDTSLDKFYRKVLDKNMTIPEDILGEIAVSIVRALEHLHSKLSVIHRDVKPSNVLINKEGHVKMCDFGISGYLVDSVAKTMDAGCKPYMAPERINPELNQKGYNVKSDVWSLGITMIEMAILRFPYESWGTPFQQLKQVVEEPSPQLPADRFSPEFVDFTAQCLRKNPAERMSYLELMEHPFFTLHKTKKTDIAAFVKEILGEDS

[11] = target: DNA-dependent protein kinase catalytic subunit (Homo sapiens) (UniProt P78527); assay: Selectivity interaction (ActivX KiNativ screen (kinase selectivity in THP-1 cell lysates)) EUB0000639a PRKDC; assay type: subcellular; details: lysate
[12] = target: Serine/threonine-protein kinase SBK1 (Homo sapiens) (UniProt Q52WX2); assay: Selectivity interaction (KinomeScan (DiscoverX)) EUB0000595a SBK1; details: at 10 µM
[13] = target: T3, Inhibitor of nuclear factor kappa-B kinase subunit alpha (Homo sapiens) (UniProt O15111); assay: Selectivity interaction (KinomeScan (DiscoverX)) EUB0000618a CHUK; details: at 10 µM
T3 sequence (whole entry): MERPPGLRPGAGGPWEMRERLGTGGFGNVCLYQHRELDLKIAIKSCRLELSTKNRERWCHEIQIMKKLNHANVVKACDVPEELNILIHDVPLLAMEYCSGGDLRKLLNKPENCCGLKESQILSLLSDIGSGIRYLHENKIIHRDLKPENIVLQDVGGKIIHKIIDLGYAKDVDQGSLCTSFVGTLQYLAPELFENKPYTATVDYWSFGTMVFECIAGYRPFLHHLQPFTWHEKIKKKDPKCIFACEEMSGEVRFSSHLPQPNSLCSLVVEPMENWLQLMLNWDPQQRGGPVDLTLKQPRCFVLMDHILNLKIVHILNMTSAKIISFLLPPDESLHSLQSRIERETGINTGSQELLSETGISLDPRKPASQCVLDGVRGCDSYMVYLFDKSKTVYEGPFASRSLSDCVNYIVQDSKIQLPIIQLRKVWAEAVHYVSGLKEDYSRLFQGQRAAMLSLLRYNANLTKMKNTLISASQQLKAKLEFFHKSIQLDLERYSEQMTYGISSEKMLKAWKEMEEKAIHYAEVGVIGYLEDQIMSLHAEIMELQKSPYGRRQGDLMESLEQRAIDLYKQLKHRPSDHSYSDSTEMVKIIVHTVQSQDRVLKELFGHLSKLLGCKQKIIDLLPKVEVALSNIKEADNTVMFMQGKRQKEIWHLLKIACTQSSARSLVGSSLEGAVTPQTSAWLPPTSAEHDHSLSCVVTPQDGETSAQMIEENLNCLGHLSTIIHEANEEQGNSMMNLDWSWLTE

[14] = target: Phosphorylase b kinase gamma catalytic chain, skeletal muscle/heart isoform (Homo sapiens) (UniProt Q16816); assay: Selectivity interaction (KinomeScan (DiscoverX)) EUB0000695a PHKG1; details: at 100 nM
[15] = target: G protein-coupled receptor kinase 4 (Homo sapiens) (UniProt P32298); assay: Selectivity interaction (ProQinase) EUB0000171b GRK4
Chain of G protein-coupled receptor kinase 4 (Homo sapiens) (P32298 whole entry, looked up): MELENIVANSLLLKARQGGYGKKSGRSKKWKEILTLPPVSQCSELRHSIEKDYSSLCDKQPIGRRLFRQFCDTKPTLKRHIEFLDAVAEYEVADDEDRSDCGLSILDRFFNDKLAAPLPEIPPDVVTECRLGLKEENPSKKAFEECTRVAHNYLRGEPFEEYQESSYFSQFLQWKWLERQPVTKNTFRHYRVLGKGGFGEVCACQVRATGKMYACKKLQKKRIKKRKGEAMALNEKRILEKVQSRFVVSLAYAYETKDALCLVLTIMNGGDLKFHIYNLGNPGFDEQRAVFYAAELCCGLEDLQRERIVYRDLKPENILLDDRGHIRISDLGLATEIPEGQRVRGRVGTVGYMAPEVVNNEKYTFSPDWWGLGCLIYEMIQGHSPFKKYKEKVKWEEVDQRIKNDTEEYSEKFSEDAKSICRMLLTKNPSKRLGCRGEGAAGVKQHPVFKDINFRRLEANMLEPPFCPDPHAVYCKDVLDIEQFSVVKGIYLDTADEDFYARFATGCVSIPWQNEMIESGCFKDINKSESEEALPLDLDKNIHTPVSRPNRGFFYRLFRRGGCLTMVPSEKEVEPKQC

Chain of DNA-dependent protein kinase catalytic subunit (Homo sapiens) (P78527 whole entry): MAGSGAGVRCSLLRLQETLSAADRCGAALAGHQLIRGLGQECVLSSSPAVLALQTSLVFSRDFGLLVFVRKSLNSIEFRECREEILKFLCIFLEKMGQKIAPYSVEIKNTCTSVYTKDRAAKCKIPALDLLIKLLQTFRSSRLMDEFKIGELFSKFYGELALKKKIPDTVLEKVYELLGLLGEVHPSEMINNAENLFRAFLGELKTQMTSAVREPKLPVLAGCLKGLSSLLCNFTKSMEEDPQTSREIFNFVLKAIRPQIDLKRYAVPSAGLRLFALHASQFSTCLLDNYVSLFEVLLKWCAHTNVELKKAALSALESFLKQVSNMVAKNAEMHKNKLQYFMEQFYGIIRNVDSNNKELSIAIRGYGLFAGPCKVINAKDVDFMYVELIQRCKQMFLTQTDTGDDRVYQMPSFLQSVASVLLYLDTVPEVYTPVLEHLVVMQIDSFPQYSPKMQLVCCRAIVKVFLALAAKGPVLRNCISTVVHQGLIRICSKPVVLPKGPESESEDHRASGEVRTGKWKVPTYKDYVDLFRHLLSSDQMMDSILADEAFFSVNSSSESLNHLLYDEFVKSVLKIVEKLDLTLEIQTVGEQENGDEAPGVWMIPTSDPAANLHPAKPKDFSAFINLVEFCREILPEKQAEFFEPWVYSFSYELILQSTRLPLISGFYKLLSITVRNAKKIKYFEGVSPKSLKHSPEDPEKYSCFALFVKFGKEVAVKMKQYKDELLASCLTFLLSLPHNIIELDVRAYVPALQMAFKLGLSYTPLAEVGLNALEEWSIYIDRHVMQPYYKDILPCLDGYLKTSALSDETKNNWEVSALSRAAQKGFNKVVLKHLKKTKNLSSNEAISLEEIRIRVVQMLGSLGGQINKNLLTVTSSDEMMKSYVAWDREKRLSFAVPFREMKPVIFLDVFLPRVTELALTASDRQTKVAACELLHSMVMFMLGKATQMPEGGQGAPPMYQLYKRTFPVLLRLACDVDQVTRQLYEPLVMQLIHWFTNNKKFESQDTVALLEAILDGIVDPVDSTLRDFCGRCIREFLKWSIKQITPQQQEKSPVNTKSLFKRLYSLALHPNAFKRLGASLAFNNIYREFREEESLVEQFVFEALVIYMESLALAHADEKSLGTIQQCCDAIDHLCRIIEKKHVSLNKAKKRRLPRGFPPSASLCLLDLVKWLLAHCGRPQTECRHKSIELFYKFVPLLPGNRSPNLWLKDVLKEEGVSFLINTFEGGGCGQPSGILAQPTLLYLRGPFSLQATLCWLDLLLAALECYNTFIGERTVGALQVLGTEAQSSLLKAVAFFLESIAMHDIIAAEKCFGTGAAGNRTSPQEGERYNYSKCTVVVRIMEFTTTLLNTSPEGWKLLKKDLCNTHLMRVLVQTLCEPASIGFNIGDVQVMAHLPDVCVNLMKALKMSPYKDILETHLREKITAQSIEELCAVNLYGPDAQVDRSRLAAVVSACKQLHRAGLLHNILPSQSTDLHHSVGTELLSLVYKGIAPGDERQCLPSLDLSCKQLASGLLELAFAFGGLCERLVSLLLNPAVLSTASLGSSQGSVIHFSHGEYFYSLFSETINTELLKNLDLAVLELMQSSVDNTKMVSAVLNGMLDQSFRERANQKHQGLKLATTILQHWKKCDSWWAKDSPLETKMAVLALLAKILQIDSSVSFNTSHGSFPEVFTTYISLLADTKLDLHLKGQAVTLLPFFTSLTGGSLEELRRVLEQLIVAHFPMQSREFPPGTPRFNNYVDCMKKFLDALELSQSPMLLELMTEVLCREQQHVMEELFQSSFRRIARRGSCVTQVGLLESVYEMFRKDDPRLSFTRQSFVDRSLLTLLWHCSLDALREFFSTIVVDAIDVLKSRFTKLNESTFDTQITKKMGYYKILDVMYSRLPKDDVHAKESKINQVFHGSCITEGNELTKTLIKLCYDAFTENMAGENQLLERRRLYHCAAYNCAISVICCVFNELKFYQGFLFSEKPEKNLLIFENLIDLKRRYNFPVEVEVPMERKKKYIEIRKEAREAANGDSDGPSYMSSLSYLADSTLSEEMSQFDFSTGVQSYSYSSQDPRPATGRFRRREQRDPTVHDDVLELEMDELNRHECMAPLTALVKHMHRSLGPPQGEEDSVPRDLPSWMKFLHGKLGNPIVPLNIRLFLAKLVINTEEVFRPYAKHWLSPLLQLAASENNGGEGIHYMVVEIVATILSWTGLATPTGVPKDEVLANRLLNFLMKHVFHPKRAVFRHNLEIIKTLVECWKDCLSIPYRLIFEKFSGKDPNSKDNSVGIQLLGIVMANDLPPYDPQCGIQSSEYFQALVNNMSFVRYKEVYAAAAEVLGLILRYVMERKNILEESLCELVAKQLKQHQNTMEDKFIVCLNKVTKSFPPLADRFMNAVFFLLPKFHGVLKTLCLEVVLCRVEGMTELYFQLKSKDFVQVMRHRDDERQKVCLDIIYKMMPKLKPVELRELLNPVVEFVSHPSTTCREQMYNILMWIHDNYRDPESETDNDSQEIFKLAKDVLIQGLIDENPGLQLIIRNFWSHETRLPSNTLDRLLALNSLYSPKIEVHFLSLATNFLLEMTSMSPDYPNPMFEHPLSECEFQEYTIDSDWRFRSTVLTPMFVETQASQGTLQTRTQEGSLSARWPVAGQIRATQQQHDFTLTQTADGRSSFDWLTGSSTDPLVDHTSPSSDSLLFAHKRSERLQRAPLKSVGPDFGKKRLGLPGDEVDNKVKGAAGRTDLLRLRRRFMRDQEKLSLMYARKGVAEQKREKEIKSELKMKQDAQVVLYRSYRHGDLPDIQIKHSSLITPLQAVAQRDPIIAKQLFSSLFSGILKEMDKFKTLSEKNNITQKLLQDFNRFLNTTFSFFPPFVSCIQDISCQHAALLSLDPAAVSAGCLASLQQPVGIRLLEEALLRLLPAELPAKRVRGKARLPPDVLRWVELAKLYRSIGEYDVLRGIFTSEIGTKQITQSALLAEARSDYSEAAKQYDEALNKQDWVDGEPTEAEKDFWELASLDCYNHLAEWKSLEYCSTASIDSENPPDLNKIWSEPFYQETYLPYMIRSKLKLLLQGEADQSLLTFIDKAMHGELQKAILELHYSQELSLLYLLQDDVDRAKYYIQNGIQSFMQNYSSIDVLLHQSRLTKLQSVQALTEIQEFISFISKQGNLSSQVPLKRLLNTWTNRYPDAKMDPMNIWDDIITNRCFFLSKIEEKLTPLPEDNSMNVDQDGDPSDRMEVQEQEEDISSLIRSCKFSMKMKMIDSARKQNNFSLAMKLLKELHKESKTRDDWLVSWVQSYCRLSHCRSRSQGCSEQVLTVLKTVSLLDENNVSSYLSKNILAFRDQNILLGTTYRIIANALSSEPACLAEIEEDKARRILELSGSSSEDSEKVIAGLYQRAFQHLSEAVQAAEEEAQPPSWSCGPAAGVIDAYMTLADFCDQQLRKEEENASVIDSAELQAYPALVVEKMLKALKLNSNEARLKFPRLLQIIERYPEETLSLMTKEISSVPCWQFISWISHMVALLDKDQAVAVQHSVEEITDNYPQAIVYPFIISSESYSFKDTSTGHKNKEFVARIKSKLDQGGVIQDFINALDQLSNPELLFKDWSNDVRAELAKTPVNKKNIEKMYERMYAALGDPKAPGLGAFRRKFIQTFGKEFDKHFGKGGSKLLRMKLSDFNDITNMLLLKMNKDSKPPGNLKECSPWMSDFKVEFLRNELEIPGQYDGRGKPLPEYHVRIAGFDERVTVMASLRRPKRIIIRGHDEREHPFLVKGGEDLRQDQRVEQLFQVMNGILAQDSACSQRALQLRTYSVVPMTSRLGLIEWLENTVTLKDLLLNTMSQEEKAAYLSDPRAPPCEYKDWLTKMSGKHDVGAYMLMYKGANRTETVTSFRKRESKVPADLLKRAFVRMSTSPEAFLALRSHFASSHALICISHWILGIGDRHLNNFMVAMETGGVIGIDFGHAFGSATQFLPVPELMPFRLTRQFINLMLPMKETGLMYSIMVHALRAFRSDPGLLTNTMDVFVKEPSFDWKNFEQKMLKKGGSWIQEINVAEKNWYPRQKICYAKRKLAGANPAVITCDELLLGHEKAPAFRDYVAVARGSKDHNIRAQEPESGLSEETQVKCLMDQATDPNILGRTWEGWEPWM
Chain of Serine/threonine-protein kinase SBK1 (Homo sapiens) (Q52WX2 whole entry): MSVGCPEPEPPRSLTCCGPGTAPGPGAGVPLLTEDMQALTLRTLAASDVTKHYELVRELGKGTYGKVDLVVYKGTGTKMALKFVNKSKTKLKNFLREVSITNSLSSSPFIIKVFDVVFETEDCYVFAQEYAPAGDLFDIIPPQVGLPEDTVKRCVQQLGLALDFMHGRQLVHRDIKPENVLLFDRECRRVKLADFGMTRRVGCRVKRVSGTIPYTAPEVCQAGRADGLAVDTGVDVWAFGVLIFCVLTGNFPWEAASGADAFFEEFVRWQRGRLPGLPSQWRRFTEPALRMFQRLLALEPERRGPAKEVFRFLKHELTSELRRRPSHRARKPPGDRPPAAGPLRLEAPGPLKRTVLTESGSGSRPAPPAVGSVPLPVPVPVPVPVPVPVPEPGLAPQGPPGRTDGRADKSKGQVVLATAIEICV

Question: How did the % of control [1] turn out when `O=C(NOC[C@H](O)CO)c1ccc(F)c(F)c1Nc1ccc(I)cc1F` was run?
Answer: The % of control was 100%.

Question: And the % of control [2]?
Answer: Its % of control is 87%.

Question: What about the % of control [3] of the same compound?
Answer: The % of control was 92%.

Question: And the % of control [4]?
Answer: The % of control was 91%.

Question: What about the % of control [5] of the same compound?
Answer: Its % of control is 90%.

Question: What about the % of control [6] of the same compound?
Answer: Its % of control is 74%.

Question: What about the % of control [7] of the same compound?
Answer: Its % of control is 75%.

Question: And the % of control [8]?
Answer: Its % of control is 68%.

Question: Which % binding [9] does the source give for `COc1cc(N(C)c2ccnc3ccc(C(F)(F)F)cc23)cc(OC)c1OC` here?
Answer: Its % binding is 100%.

Question: Which % of control [10] does the source give for `CCN(CC)CCCCNc1ncc2cc(-c3cc(OC)cc(OC)c3)c(NC(=O)NC(C)(C)C)nc2n1` here?
Answer: The % of control was 100%.

Question: `CC[C@@H]1[C@H](F)C(=O)N[C@@H]1COc1nccc2cc(C(N)=O)c(OC)cc12` [ZIMLOVISERTIB] was tested. Which % of inhibition ([11]; at 0.01 µM) did it give?
Answer: Its % of inhibition is -17.9%.

Question: What about the % of inhibition ([11]; at 0.04 µM) of the same compound?
Answer: Its % of inhibition is -5.4%.

Question: What about the % of inhibition ([11]; at 0.2 µM) of the same compound?
Answer: The % of inhibition was 5%.

Question: And the % of inhibition ([11]; at 1 µM)?
Answer: The % of inhibition was 12.5%.

Question: What about the % of inhibition ([11]; at 5 µM) of the same compound?
Answer: Its % of inhibition is -1.4%.

Question: `COCC(=O)NC/C=C/c1ccc2ncnc(Nc3ccc(Oc4ccc(C)nc4)c(C)c3)c2c1` [CP-724714] was tested. Which % of control [12] did it give?
Answer: The % of control was 100%.

Question: `O[C@H]1CC[C@H](Nc2ncc3nc(Nc4c(F)cc(F)cc4F)n([C@H]4CCOC4)c3n2)CC1` was tested. Which % of control [13] did it give?
Answer: The % of control was 86%.

Question: `Cc1cc(F)c(C(=O)Nc2cccc(-c3nncn3C(C)C)n2)cc1-n1cnc(C2CC2)c1` was tested. Which % of control [14] did it give?
Answer: The % of control was 98%.

Question: Which results are given for `C=CC(=O)Nc1cccc(C(=O)Nc2ccc(Nc3cc(-c4[nH]c(SC)nc4C)ccn3)cc2)c1`?
Answer: % of control ([15]; at 1 µM): 101%; % of control ([15]; at 5 µM): 97%
